Assay results published in US20090131406A1 (BAYER CROPSCIENCE AG, priority 2005, published 2009).
Like-named read-outs stand apart in the source and are kept apart here.

Test: logP determination by HPLC on a reversed-phase column (C 18) at pH 2.7
Assay type: physicochemical
Details: for chromatographic logP: reversed-phase C18 HPLC column
[1] = reversed-phase C 18, pH 2.7, preparation examples
[2] = reversed-phase C 18, pH 2.7, preparation examples, read-out: logP (pH 2.7)
[3] = reversed-phase C 18, pH 2.7, Table 2, starting materials of formula (VI), read-out: Physical data: logP values
[4] = reversed-phase C 18, pH 2.7, Table 3, starting materials of formula (VII), read-out: logP (pH 2.7)

| chromatographic logP [2] | SMILES | further results |
| --- | --- | --- |
|  | Cc1ccc2c(c1)C1(O)CCN(C2)C(=O)[C@H]2OC(C)(C)O[C@@H]2CC1=O (stereo partly drawn) [Example I-1, (3aS,13aR)-11-Hydroxy-2,2,9-trimethyl-6,11,13,13a-tetrahydro-4H-5,11-ethano[1,3]dioxolo[4,5-d][2]benzazecin-4,12(3aH)-one] | logP (pH 2.7) [1]: 1.61 |
| 1.49 | CC1(C)O[C@@H]2C(=O)N3CCC(O)(C(=O)C[C@H]2O1)c1ccc(F)cc1C3 (stereo partly drawn) [Example I-2, (3aS,13aR)-8-Fluoro-11-hydroxy-2,2-dimethyl-6,11,13,13a-tetrahydro-4H-5,11-ethano[1,3]dioxolo[4,5-d][2]benzazecine-4,12(3aH)-dione] |  |
| 0.99 | O=C1CCCC(=O)C2(O)CCN1Cc1cc3c(cc12)OCO3 (centres unmarked) [Example I-3, 12-Hydroxy-9,10,12-trihydro-5H-6,12-ethano[1,3]dioxolo[4,5-k][2]benzazecine-7,11(8H)-dione] |  |
| 1.38 | CC1(C)O[C@@H]2C(=O)N3CCC(O)(C(=O)C[C@H]2O1)c1cc2c(cc1C3)OCO2 (stereo partly drawn) [Example I-4, (3aS,14aR)-12-hydroxy-2,2-dimethyl-6,12,14,14a-tetrahydro-4H-5,12-ethanobis[1,3]dioxolo[4,5-d:4′,5′-k][2]benzazecine-4,13(3aH)-dione] |  |
|  | Cc1ccc2c(c1)C1CCN(C2)C(=O)[C@H]2OC(C)(C)O[C@@H]2CC1=O (stereo partly drawn) [Example I-5, (3aS,13aR)-2,2,9-Trimethyl-6,11,13,13a-tetrahydro-4H-5,11-ethanol[1,3]dioxolo[4,5-d][2]benzazecine-4,12(3aH)-dione] | logP (pH 2.7) [1]: 1.92 |
| 1.69 | CC1(C)O[C@@H]2C(=O)N3CCC(C(=O)C[C@H]2O1)c1ccc(F)cc1C3 (stereo partly drawn) [Example I-6, (3aS,13aR)-8-Fluoro-2,2-dimethyl-6,11,13,13a-tetrahydro-4H-5,11-ethano[1,3]dioxolo[4,5-d][2]benzazecine-4,12(3aH)-dione] |  |
| 1.3 | O=C1CCCC(=O)N2CCC1c1cc3c(cc1C2)OCO3 (centres unmarked) [Example I-7, 9,10,12-Trihydro-5H-6,12-ethano[1,3]dioxolo[4,5-k][2]benzazecine-7,11(8H)-dione] |  |
| 1.6 | CC1(C)O[C@@H]2C(=O)N3CCC(C(=O)C[C@H]2O1)c1cc2c(cc1C3)OCO2 (stereo partly drawn) [Example I-8, (3aS,14aR)-2,2-Dimethyl-6,12,14,14a-tetrahydro-4H-5,12-ethanobis[1,3]dioxolo[4,5-d:4′,5′-k][2]benzazecine-4,13(3aH)-dione] |  |
| 1.33 | Cc1ccc2c(c1)C1CCN(C2)C(=O)[C@@H](O)[C@H](O)CC1=O (stereo partly drawn) [Example I-9, (4S,5R)-4,5-Dihydroxy-10-methyl-5,6,8-trihydro-1H-2,8-ethano-2-benzazecine-3,7(4H)-dione] |  |
| 2.62 | Cc1ccc2c(c1)C1=CC[C@H]3OC(C)(C)O[C@@H]3C(=O)N(CC1)C2 [Example Ia-1, (3aS,13aR)-2,2,9-Trimethyl-3a,6,13,13a-tetrahydro-4H-5,11-ethano[1,3]dioxolo[4,5-d][2]benzazecin-4-one] |  |
| 2.39 | CC1(C)O[C@@H]2C(=O)N3CCC(=CC[C@H]2O1)c1ccc(F)cc1C3 [Example Ia-2, (3aS,13aR)-8-Fluoro-2,2-dimethyl-3a,6,13,13a-tetrahydro-4H-5,11-ethano[1,3]dioxolo[4,5-d][2]benzazecin-4-one] |  |
| 0.49 | CC1(C)O[C@@H]2C(=O)N3CCC(=CC[C@H]2O1)c1cnccc1C3 [Example Ia-3, (3aS,13aR)-2,2-Dimethyl-3a,6,13,13a-tetrahydro-4H-5,11-ethano[1,3]dioxolo[4,5-c]pyrido[3,4-h]azecin-4-one] |  |
| 1.82 | COc1cc2c(cc1OC)C1=CCCCC(=O)N(CC1)C2 [Example Ia-4, 10,11-Dimethoxy-1,4,5,6-tetrahydro-3H-2,8-ethano-2-benzazecin-3-one] |  |
| 2.01 | O=C1CCCC=C2CCN1Cc1cc3c(cc12)OCO3 [Example Ia-5, 5,8,9,10-Tetrahydro-7H-6,12-ethano[1,3]dioxolo[4,5-k][2]benzazecin-7-one] |  |
| 2.19 | CC1(C)O[C@@H]2C(=O)N3CCC(=CC[C@H]2O1)c1cc2c(cc1C3)OCO2 [Example Ia-6, (3aS,14aR)-2,2-Dimethyl-3a,6,14,14a-tetrahydro-4H-5,12-ethanobis[1,3]dioxolo[4,5-d:4′,5′-k][2]benzazecin-4-one] |  |
|  | C=CCCN(Cc1ccc(C)cc1Br)C(=O)[C@H]1OC(C)(C)O[C@@H]1CC=C [VI-1, (4S,5R)-5-Allyl-N-(2-bromo-4-methylbenzyl)-N-but-3-en-1-yl-2,2-dimethyl-1,3-dioxolane-4-carboxamide] | chromatographic logP [3]: 5.27 |
|  | C=CCCN(Cc1cc(F)ccc1Br)C(=O)[C@H]1OC(C)(C)O[C@@H]1CC=C [VI-2, (4S,5R)-5-allyl-N-(2-bromo-5-fluorobenzyl)-N-but-3-en-1-yl-2,2-dimethyl-1,3-dioxolane-4-carboxamide] | chromatographic logP [3]: 4.83 |
|  | Cc1ccc(CN2CCC=CC[C@H]3OC(C)(C)O[C@@H]3C2=O)c(Br)c1 [VII-1, (3aS,10aR)-5-(2-Bromo-4-methylbenzyl)-2,2-dimethyl-3a,5,6,7,10,10a-hexahydro-4H-[1,3]dioxolo[4,5-c]azonin-4-one] | chromatographic logP [4]: 3.41 |
|  | CC1(C)O[C@@H]2C(=O)N(Cc3cc(F)ccc3Br)CCC=CC[C@H]2O1 [VII-2, (3aS,10aR)-5-(2-bromo-5-fluorobenzyl)-2,2-dimethyl-3a,5,6,7,10,10a-hexahydro-4H-[1,3]dioxolo[4,5-c]azonin-4-one] | chromatographic logP [4]: 3.09 |
|  | CC1(C)O[C@@H]2C(=O)N(Cc3ccncc3Br)CCC=CC[C@H]2O1 [VII-3, (3aS,10aR)-5-[(3-bromopyridin-4-yl)methyl]-2,2-dimethyl-3a,5,6,7,10,10a-hexahydro-4H-[1,3]dioxolo[4,5-c]azonin-4-one] | chromatographic logP [4]: 1.96 |
|  | COc1cc(Br)c(CN2CCC=CCCCC2=O)cc1OC [VII-4, 1-(2-bromo-4,5-dimethoxybenzyl)-1,3,4,5,8,9-hexahydro-2H-azonin-2-one] | chromatographic logP [4]: 2.78 |
|  | O=C1CCCC=CCCN1Cc1cc2c(cc1Br)OCO2 [VII-5, 1-[(6-Bromo-1,3-Benzodioxol-5-yl)Methyl]-1,3,4,5,8,9-Hexahydro-2H-azonin-2-one] | chromatographic logP [4]: 2.94 |

| SMILES | chromatographic logP [2] | further results |
| --- | --- | --- |
| O=C1C[C@@H](O)[C@H](O)C(=O)N2CCC1c1cc3c(cc1C2)OCO3 (some centres unmarked) [Example I-10] | 0.89 |  |
